According to patent US20200360391A1, “Medicinal Composition for Treating Intractable Heart Disease” (Osaka University, priority 2016, published 2020):
Like-named read-outs stand apart in the source and are kept apart here.

What was measured:
[1] = test system: spontaneous dilated cardiomyopathy (J2N-k) hamster model; assay: Spontaneous dilated cardiomyopathy (J2N-k) hamster model, 8-week administration from 20 weeks of age (Tests 1-3): echocardiography, body weight; settings: for Minimal effective dose (screening 2): mg/kg twice per day, oral preparation
Method: The doses of pharmaceutical products were determined based on the no-observed-adverse-effect levels in a long-term toxicity study using rats. δ-Glycan-deficient spontaneous dilated cardiomyopathy (J2N-k) male hamsters (Japan SLC, Inc.) were delivered at 18 weeks of age. After a 2-week quarantine/acclimation, echocardiography was performed.
Each of the pharmaceutical products (A to K and O) was individually administered twice daily (at an interval of 8 hours or more) by oral gavage, and echocardiography was performed after 4 and 8 weeks (before dissection). Differences from the value before the start of administration (at the time of grouping) (amount of change: Δ) in each group were examined, and the cardiac function (EF value, FS %, etc.) was compared with that in the vehicle group (Group 1). Moreover, the heart was removed […] after the start of administration, and electron microscopy and RNA protein measurement were performed. Specimens for immunopathology were also collected and evaluated.
Each pharmaceutical product was individually suspended in 0.5% CMC-Na (sodium carboxymethylcellulose; Wako Pure Chemical Industries, Ltd.) before use, and administered. […] To Group 1 (control), 0.5% CNC-Na (vehicle) was administered.
Each pharmaceutical product was individually suspended in 0.5% CMC-Na (sodium carboxymethylcellulose; Wako Pure Chemical Industries, Ltd.) before use, and administered. Test substance G was suspended in distilled water before use, and administered.
Reason the doses were set (assuming that the adult body weight was 60 kg, the same amounts as the maximum clinical doses were set) • 1) The clinical dose of C (ozagrel; OZ) was 200 mg twice per day. The dose was thus set to 3.3 mg/kg twice per day. • 2) The clinical dose of D (cilostazol; CS) was 100 mg twice per day. The dose was thus set to 1.7 mg/kg twice per day. • 3) The clinical dose of E (pirfenidone; PF) was 600 mg three times per day, i.e., 1800 mg/day in total. The dose was thus set to 15 mg/kg twice per day. • 4) The clinical dose of G (nintedanib sulfonate; OB) was 150 mg twice per day. The dose was thus set to 2.5 mg/kg twice per day. • 5) The clinical dose of P (carvedilol; CV) was 10 mg twice per day. The dose was thus set to 0.17 mg/kg twice per day. • 6) Preparation 2 (PLGA⋅MS preparation of camostat; B⋅MS): the clinical dose of active substance camostat was 200 mg three times per day, i.e., 600 mg/day in total; thus, intermittent subcutaneous administration at a daily dose of 10 mg/kg once every 4 weeks, twice in total was set. The dose was 1/28 of the total oral dose amount.
The dose volume in oral administration was 5 mL/kg (the amount of liquid to be administered to each animal was calculated based on the most recent body weight), and administered by oral gavage using a polypropylene disposable syringe and a rat stomach tube.
The administration period of each pharmaceutical product was 8 weeks.

[2] = test system: spontaneous dilated cardiomyopathy J2N-k baby hamsters; assay: J2N-k baby hamsters (Test 4): administration alone or in combination, echocardiography, body weight; type: in vivo, hamster; settings: for % FS / EF (%) / value of change in E.F. compared with E.F. at 0 W / value of change in F.S. compared with F.S. at 0 W: Test 4, dose O 0.17, C 3.3, E 15, orally twice daily, mean ± S.D.
Method: δ-Glycan-deficient spontaneous dilated cardiomyopathy (J2N-k) male hamsters (Japan SLC, Inc.) were delivered at 4 weeks of age. After a 1-week quarantine/acclimation, echocardiography was performed. The hamsters were grouped by stratified random assignment based on the EF values and the body weights so that each administration group was equalized.
Each test substance was individually administered twice daily (at an interval of 8 hours or more) by oral gavage, and echocardiography was performed 4 and 8 weeks after the start of administration (before dissection). Differences from the value before the start of administration (at the time of grouping) (amount of change: A) in each group were examined, and the cardiac function (EF value, FS %, etc.) was compared with that in the vehicle group (Group 1).
The doses were set according to the dose-setting basis in Test 3, and similarly orally administered twice daily. Effects of administration of combinations of two or three of carvedilol, which is a β-blocker widely used clinically, and ozagrel and/or pirfenidone were examined.

[3] = test system: rats; settings: cited from earlier work; for No-observed-adverse-effect level: rats; for Dose at which toxic findings were observed: duration per compound
[4] = test system: BLM-induced mouse pulmonary fibrosis model; settings: cited from earlier work
[5] = cited from earlier work
[6] = test system: rats; assay: Repeated oral administration toxicity study in rats (dose-setting basis); settings: mg/kg twice per day, oral preparation
Source text: The dose-setting basis for the doses of the test substances used in pharmacological tests is as described below.

[7] = test system: rat coronary artery complete ischemia model; assay: Model of ischemia (MI) by rat coronary artery complete ligation (Tests 1 and 2): echocardiography, body weight; settings: for value of change in E.F. compared with E.F. on Day 1 / value of change in F.S. compared with F.S. on Day 1: B-MS 100, C-MS 50, F-MS 30 mg/kg s.c. single injection
[8] = Test 1, p.o. b.i.d., NOAEL-based dose
[9] = MI Test 1, NOAEL doses, 7 Day, mean ± S.D.
[10] = MI Test 1, NOAEL doses, 14 Day, mean ± S.D.
[11] = MI Test 1, NOAEL doses, 29 Day, mean ± S.D.
[12] = Test 2, p.o. b.i.d., NOAEL-based dose
[13] = MI Test 2, 14 Day, B 150, G 5, I 30, C 10 mg/kg p.o. b.i.d., mean ± S.D.
[14] = MI Test 2, 29 Day, B 150, G 5, I 30, C 10 mg/kg p.o. b.i.d., mean ± S.D.

Cc1ccc(=O)n(-c2ccccc2)c1 [Compound E, Pirfenidone]
Body weight 0 W ([1]; Test 1, at grouping): 116.1 g | LVIDd 4 W ([1]; Test 1, p.o. b.i.d.): 6.9 mm | LVIDd 8 W ([1]; Test 1, p.o. b.i.d.): 7.3 mm | LVIDs 4 W ([1]; Test 1, p.o. b.i.d.): 5.7 mm | LVIDs 8 W ([1]; Test 1, p.o. b.i.d.): 6.1 mm | Body weight 1 W [1, 8]: 116.3 g | Body weight 2 W [1, 8]: 118.3 g | Body weight 3 W [1, 8]: 119.5 g | Body weight 4 W [1, 8]: 121.4 g | LVIDs 8 W ([1]; Test 1, p.o. b.i.d., listed as pirfenidone): significantly lower | Cardiac function (EF, FS %) actual measured value and/or amount of change compared with control, 8 W value ([1]; Test 3, clinical dose): significant cardiac function improvement effect | Cardiac function (EF, FS %) actual measured value or change rate compared with control, 4 W value ([1]; Test 3, clinical dose): significant cardiac function improvement effect | Cardiac function improvement effect ([1]; Test 3, clinical dose, summary): cardiac function improvement effect was observed | Minimal effective dose (screening 2) [1]: 15 mg/kg | Body weight 0 W ([2]; Test 4, at grouping): 71.7 g | % FS ([2]; 0 W (start of administration)): 39.0 ± 3.0% | EF (%) ([2]; 0 W (start of administration)): 77.1 ± 3.4% | % FS ([2]; 4 W): 34.1 ± 1.9% | EF (%) ([2]; 4 W): 71.3 ± 2.4% | value of change in E.F. compared with E.F. at 0 W ([2]; 4 W): <−5.8 ± 1.9> % | value of change in F.S. compared with F.S. at 0 W ([2]; 4 W): <−4.8 ± 1.7> % | % FS ([2]; 8 W): 29.7 ± 1.8% | EF (%) ([2]; 8 W): 65.2 ± 2.6% | value of change in E.F. compared with E.F. at 0 W ([2]; 8 W): <−11.9 ± 2.8> % | value of change in F.S. compared with F.S. at 0 W ([2]; 8 W): <−9.2 ± 2.4> % | No-observed-adverse-effect level ([3]; 1 month): 100 mg/kg | Dose at which toxic findings were observed ([3]; repeated oral administration in rats): ≥ 100 mg/kg | Minimal effective dose for antifibrosis ([4]; BLM-induced mouse pulmonary fibrosis model): 30 mg/kg/day | Abdominal / stomach / gastric discomfort cases ([5]; human, in vivo): 14.0% | Abnormal fluctuation in laboratory test values ([5]; human, in vivo): 45.3% | Anorexia cases ([5]; human, in vivo): 23.0% | Light-hypersensitivity cases ([5]; human, in vivo): 51.7% | Nausea cases (cilostazol: nausea/vomiting) ([5]; human, in vivo): 12.1% | γ-GTP elevation cases ([5]; human, in vivo): 20.0% | Cases with side effects (including laboratory test value abnormality) ([5]; share of cases evaluated for safety): 87.9% | Maximum no-observed-adverse-effect level (screening 1) [6]: 50 mg/kg | Action on left ventricular systolic function ([7]; MI Test 1, 28-day repeated oral administration b.i.d., NOAEL-based doses): suppression action on the deterioration of left ventricular systolic function | Body weight ([7]; MI Test 1, NOAEL doses, 1 Day (grouping), mean ± S.D.): 232.0 ± 3.9 g | % FS: value of change compared with the value on Day 1 [7, 9]: 0% | Body weight [7, 9]: 236.7 ± 5.3 g | EF: value of change compared with the value on Day 1 [7, 9]: -1% | % FS: value of change compared with the value on Day 1 [7, 10]: -2% | Body weight [7, 10]: 257.7 ± 10.1 g | EF: value of change compared with the value on Day 1 [7, 10]: -4% | Body weight ([7]; MI Test 1, NOAEL doses, 21 Day, mean ± S.D.): 272.4 ± 10.5 g | % FS: value of change compared with the value on Day 1 [7, 11]: -4% | Body weight [7, 11]: 287.5 ± 16.2 g | EF: value of change compared with the value on Day 1 [7, 11]: -8%

COC(=O)c1ccc2c(c1)NC(=O)/C2=C(\Nc1ccc(N(C)C(=O)CN2CCN(C)CC2)cc1)c1ccccc1 [Compound G, Nintedanib ethanesulfonate]
Body weight 0 W ([1]; Test 2, at grouping): 121.6 g | LVIDd 4 W ([1]; Test 2, p.o. b.i.d.): 6.9 mm | LVIDd 8 W ([1]; Test 2, p.o. b.i.d.): 7.2 mm | LVIDs 4 W ([1]; Test 2, p.o. b.i.d.): 5.7 ± mm | LVIDs 8 W ([1]; Test 2, p.o. b.i.d.): 6.1 ± mm | % FS 4 W [1, 12]: significantly higher | % FS value of change at 4 W compared with 0 W [1, 12]: significantly higher | Body weight 1 W [1, 12]: 121.3 g | Body weight 2 W [1, 12]: 122.0 g | Body weight 3 W [1, 12]: 123.8 g | Body weight 4 W [1, 12]: 126.1 g | Body weight 5 W [1, 12]: 127.1 g | Body weight 7 W [1, 12]: 129.2 g | Body weight 8 W [1, 12]: 128.9 g | EF 4 W [1, 12]: significantly higher | LVIDs 8 W ([1]; Test 2, p.o. b.i.d., listed as nintedanib): significantly lower | Cardiac function (EF, FS %) actual measured value and/or amount of change compared with control, 8 W value ([1]; Test 3, clinical dose): significant cardiac function improvement effect | Minimal effective dose (screening 2) [1]: 2.5 mg/kg | No-observed-adverse-effect level ([3]; 6 months): 5 mg/kg | Dose at which toxic findings were observed ([3]; repeated administration in rats): 20 mg/kg/day | Inhibitory effect on pulmonary fibrosis, 60 mg/kg versus 30 mg/kg ([4]; prophylactic administration Day 0 to Day 14, once daily oral gavage): slightly higher inhibitory effect on pulmonary fibrosis | Dose with apparent effect on both inflammation and fibrosis ([4]; therapeutic administration Day 7 to Day 21, once daily oral gavage): 60 mg/kg | Abdominal pain cases ([5]; human, in vivo): 10.2% | Diarrhea cases ([5]; human, in vivo): 53.6% | Elevated AST (GOT) and/or ALT (GPT) / liver enzyme cases ([5]; human, in vivo): 10.5% | Nausea cases (cilostazol: nausea/vomiting) ([5]; human, in vivo): 19.1% | Maximum no-observed-adverse-effect level (screening 1) [6]: 5 mg/kg | EF actual measured value and/or amount of change compared with control ([7]; MI Test 2, Day 14 and Day 29): significantly higher | Values of cardiac function (EF, FS %) compared with control ([7]; MI Test 2, oral b.i.d. 4 weeks or single subcutaneous administration): significantly higher | Body weight ([7]; MI Test 2, 1 Day, B 150, G 5, I 30, C 10 mg/kg p.o. b.i.d., B MS 100, C MS 50, I MS 30 mg/kg s.c. single injection, mean): 240.9 g | Body weight ([7]; MI Test 2, 7 Day, B 150, G 5, I 30, C 10 mg/kg p.o. b.i.d., B MS 100, C MS 50, I MS 30 mg/kg s.c. single injection, mean): 248.1 g | Body weight ([7]; MI Test 2, 14 Day, B 150, G 5, I 30, C 10 mg/kg p.o. b.i.d., B MS 100, C MS 50, I MS 30 mg/kg s.c. single injection, mean): 273.9 g | value of change in E.F. compared with E.F. on Day 1 [7, 13]: <−6.2 ± 1.8> % | value of change in F.S. compared with F.S. on Day 1 [7, 13]: <−3.4 ± 1.1> % | Body weight ([7]; MI Test 2, 21 Day, B 150, G 5, I 30, C 10 mg/kg p.o. b.i.d., B MS 100, C MS 50, I MS 30 mg/kg s.c. single injection, mean): 290.5 g | Body weight ([7]; MI Test 2, 29 Day, B 150, G 5, I 30, C 10 mg/kg p.o. b.i.d., B MS 100, C MS 50, I MS 30 mg/kg s.c. single injection, mean): 311.0 g | value of change in E.F. compared with E.F. on Day 1 [7, 14]: <−11.0 ± 2.7> % | value of change in F.S. compared with F.S. on Day 1 [7, 14]: <−5.8 ± 3.6> %
